# Several values for one entry are separate records, joined by “and”; a condition that tells them apart may be missing. Identical values can stand only once.
# Test system: NKp44L at the surface of activated human CD4+ T cells
# Test: Inhibition by antiserums of 3S16Nter-induced NKp44L expression at the surface of activated human CD4+ T cells (cytofluorometry)
# Type: cell-based
# Source text: The aim of Example 5 was to test the ability of the antiserums of a rat vaccinated with the adjuvanted 3S drug substance to inhibit the expression of NKp44L at the surface of activated human CD4+ T cells induced by the 3S peptide, namely the 3S16Nter peptide.
# CD4+ T cells were sorted from human PBMC and activated for 3 days with PHA (Thermo Fisher Scientific, Waltham, USA) then expanded for three days with recombinant IL-2 (Novartis, Horsham, United Kingdom). The cells were put in presence of 3S16Nter peptides (Covalab, Villeurbanne, France) in order to induce the expression of NKp44L at their surface.
# The expression of NKp44L at the surface of the cells was measured using the intensity of a specific fluorescent staining measured by cytofluorometry.
# The inhibition of NKp44L expression by the antiserums of vaccinated rat was studied.
# The antisera were tested at different dilutions in triplicate.
# Human CD4+ T cells were obtained by magnetic separation from a leuko-platelet residue pouch ordered from the EFS (“Etablissement Francais du Sang”).
# The human CD4+ T cells were sorted from the pouch according to the following protocol: • 1. The pouch is distributed in four Falcon tubes of 50 mL: 4×15 mL • 2. Complete to 50 mL with RPMI1640+glutamax medium (ref 72400-054, GIBCO, Life Technologies, Carlsbad, USA) • 3. […]
substance,measurement,setting,value
H-CPWNASWSNKSLDDIW-OH [3S16Nter],PE X-mean fluorescence,"no serum, with 3S16Nter peptides (5 μg/mL), single wells",59.6 and 64.7
same,NKp44L expression on activated CD4+ T cells (mean level),"without serum, in the presence of 3S16Nter peptides",62

# Source: US9511136B2, “Immunogenic compounds comprising HIV GP41 peptide coupled to CRM197 carrier protein” ([…], priority 2012, dated 2016)
